Measured values published in patent US20200308622A1, “Phage-Mediated Molecular Detection Methods and Related Aspects” (United States of America as represented by the Secretary of …, priority 2017, published 2020).

Legend:
MSSA strain RN4220 = test: PMMD (phage K RT-qPCR) antibiotic sensitivity assay, MSSA; assay type: cell-based, Staphylococcus aureus; details: cefoxitin 4 μg/ml, with vs without fox, phage K gp125 RNA qPCR
Method: (§1) Staphylococcus aureus (S. aureus) bacterial cultures were grown for one hour in LB-Lennox (10 g/l Tripone, 5 g/l yeast extract and 5 g/l NaCl) media at 37° C. with strong aeration (225 rpm shaking). For antibiotic sensitivity assays the cultures were grown for one or three hours, as indicated, and cefoxitin (Sigma-Aldrich) was added at a final concentration of 4 μg/ml using a 1,000× stock in water.
(§2) The reactions were performed by mixing 50 μl of S. aureus bacterial cultures (˜2×10^9 cfu/ml) and 50 μl of a phage K lysate ( about 5×10^8 pfu/ml) or 1 μl of CsCl gradient purified phage K (about 1×10^10 pfu/ml). The mixtures were incubated on ice for 3-4 minutes and the infections were allowed to proceed for 10 minutes, unless indicated otherwise, at 37° C. with shaking (400 rpm). Five minutes prior to the end of the incubation, lysostaphin (Sigma-Aldrich) w as added from a 20× stock (2 mg/ml).
(§3) Single-step fluorescent quantitative or real-time PCR (qPCR) was done with Luna one-step RT-qPCR kit (NEB) using low profile clear 0.2 ml PCR tubes and optical ultraclear flat caps (BioRad). The reactions were run in a CFX96 real-time PCR detection system (BioRad) with CFX Manager 3. Quantification cycle values (Cqs) were auto calculated by the software, and ranged front about […]. […] 10 minutes/35× (95° C. 10 seconds, 60° C. 30 seconds, plate read). […]

MRSA strain SA-1012.COI = test: PMMD (phage K RT-qPCR) antibiotic sensitivity assay, MRSA; assay type: cell-based, Staphylococcus aureus; details: cefoxitin 4 μg/ml, with vs without fox, phage K gp125 RNA qPCR
Method: as §1, §2, §3

CO[C@@]1(NC(=O)Cc2cccs2)C(=O)N2C(C(=O)O)=C(COC(N)=O)CS[C@@H]21 [fox, cefoxitin]
increase of Cq values on addition of fox in the media (MSSA strain RN4220; one hour of incubation): about 1.5 | increase of Cq values on addition of fox in the media (MSSA strain RN4220; three hours of incubation): about 11.5 | Cq increase in the presence of fox (MRSA strain SA-1012.COI; one hour of incubation): about 1.0 | Cq increase in the presence of fox (MRSA strain SA-1012.COI; three hours of incubation): about 0.0
